Measured values from US9206128B2 (Constellation Pharmaceuticals, Inc., priority 2011, dated 2015).

Experiments:
EZH2 = EZH2 (Homo sapiens, UniProt Q15910); assay: EZH2 activity inhibition assay (rPRC2, 3H SAM, biotinylated oligonucleosomes, FlashPlate); assay type: biochemical; conditions: rPRC2, 2 nM EZH2, 0.2 μM 3H SAM, top concentration 80 μM
Y641N EZH2 = Y641N EZH2 (Homo sapiens, UniProt Q15910, Y641N); assay: Y641N EZH2 activity inhibition assay (as EZH2 assay, reconstituted H3K27Me2 oligonucleosomes as substrate); assay type: biochemical; conditions: Y641N EZH2 mutant enzyme
Chain of Y641N EZH2 (Q15910 whole entry Y641N): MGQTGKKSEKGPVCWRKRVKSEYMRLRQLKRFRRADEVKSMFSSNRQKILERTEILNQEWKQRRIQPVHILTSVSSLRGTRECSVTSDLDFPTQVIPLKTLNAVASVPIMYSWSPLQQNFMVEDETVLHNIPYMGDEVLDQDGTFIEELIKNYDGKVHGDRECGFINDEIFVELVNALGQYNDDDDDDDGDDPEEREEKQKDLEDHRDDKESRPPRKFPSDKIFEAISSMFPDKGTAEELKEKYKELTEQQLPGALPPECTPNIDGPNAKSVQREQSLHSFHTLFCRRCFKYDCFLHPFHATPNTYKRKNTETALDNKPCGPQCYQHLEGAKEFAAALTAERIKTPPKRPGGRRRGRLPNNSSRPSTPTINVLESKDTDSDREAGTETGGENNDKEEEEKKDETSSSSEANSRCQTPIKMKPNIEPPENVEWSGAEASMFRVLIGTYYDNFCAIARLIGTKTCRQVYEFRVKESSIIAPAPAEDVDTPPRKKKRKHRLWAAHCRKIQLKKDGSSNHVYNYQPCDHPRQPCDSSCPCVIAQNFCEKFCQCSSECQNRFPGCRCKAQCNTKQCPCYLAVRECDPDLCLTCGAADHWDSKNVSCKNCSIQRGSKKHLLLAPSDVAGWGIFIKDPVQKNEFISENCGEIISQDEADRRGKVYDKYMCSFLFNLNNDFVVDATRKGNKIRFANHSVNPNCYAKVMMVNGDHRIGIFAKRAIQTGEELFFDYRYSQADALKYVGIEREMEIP
Chain of Y641N EZH2 (O75530 whole entry partner): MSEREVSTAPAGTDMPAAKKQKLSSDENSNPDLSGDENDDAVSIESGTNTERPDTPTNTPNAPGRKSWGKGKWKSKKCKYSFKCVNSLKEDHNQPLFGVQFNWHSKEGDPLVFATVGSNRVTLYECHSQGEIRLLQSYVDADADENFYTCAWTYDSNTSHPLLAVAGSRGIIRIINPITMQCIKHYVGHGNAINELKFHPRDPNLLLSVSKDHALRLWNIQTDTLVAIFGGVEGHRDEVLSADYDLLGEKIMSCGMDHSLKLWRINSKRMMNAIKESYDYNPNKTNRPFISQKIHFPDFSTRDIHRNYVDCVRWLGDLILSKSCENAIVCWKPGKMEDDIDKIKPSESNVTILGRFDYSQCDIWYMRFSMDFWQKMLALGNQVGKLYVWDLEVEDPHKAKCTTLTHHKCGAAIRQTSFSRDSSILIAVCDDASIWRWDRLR
Chain of Y641N EZH2 (Q15022 whole entry partner): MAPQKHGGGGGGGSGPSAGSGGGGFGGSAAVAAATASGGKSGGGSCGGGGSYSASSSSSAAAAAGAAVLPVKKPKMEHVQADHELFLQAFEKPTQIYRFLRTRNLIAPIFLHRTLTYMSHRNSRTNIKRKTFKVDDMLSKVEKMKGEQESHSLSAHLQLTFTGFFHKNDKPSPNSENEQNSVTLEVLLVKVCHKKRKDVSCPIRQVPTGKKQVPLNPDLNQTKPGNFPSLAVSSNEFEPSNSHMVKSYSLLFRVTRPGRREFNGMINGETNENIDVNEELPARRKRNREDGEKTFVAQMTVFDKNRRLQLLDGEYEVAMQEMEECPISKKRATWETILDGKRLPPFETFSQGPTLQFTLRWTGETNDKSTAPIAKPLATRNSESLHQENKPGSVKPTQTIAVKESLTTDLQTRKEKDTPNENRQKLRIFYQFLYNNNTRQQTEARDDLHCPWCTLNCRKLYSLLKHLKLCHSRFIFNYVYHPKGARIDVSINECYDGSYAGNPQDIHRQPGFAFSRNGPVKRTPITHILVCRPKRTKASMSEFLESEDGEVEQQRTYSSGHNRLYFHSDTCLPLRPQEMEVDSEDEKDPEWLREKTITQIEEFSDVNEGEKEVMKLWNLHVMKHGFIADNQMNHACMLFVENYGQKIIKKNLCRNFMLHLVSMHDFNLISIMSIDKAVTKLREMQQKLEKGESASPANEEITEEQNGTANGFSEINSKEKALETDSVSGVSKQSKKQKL

Chain of EZH2 (Q15910 whole entry): as the sequence (Q15910 whole entry Y641N) above, with N641Y counted along it
Chain of EZH2 (O75530 whole entry partner): as the sequence (O75530 whole entry partner) above
Chain of EZH2 (Q15022 whole entry partner): as the sequence (Q15022 whole entry partner) above

IC50 (EZH2) [nM]	IC50 (Y641N EZH2) [nM]	Structure (SMILES)
< 1000	1000 to 10000	COc1cc(C)[nH]c(=O)c1CNC(=O)c1ccc(Oc2ccccc2)cc1 [Compound I-195, N-((2-hydroxy-4-methoxy-6-methylpyridin-3-yl)methyl)-4-phenoxybenzamide]
1000 to 10000	> 80000	Cc1cc(N)c(CNC(=O)c2ccc(Oc3ccccc3)cc2)c(=O)[nH]1 [Compound I-196, N-((4-amino-2-hydroxy-6-methylpyridin-3-yl)methyl)-4-phenoxybenzamide]
< 1000	1000 to 10000	Cc1cc(C)c(CNC(=O)c2c(C)cn(C(C)c3ccccc3)c(=O)c2C)c(=O)[nH]1 (stereo not drawn) [Compound I-200, N-((4,6-dimethyl-2-oxo-1,2-dihydropyridin-3-yl)methyl)-3,5-dimethyl-2-oxo-1-(1-phenylethyl)-1,2-dihydropyridine-4-carboxamide]
